# Assay results from publication PMC5775428, “Towards an experimental classification system for membrane active peptides” (Scientific Reports, 2018).
# Where two headings read alike, the source gives them in different places.
# How the values were obtained:
# [1] = cited from earlier work
# [2] = cited from earlier work; remark: listed apart in the source
# [3] = cited from earlier work; remark: listed apart in the source
# [4] = cited from earlier work; remark: listed apart in the source
# [5] = cited from earlier work; remark: listed apart in the source
# [6] = cited from earlier work; remark: listed apart in the source
# [7] = cited from earlier work; remark: listed apart in the source
# [8] = cited from earlier work; remark: listed apart in the source
# [9] = cited from earlier work; remark: listed apart in the source
# [10] = cited from earlier work; remark: listed apart in the source
# [11] = system: Pseudomonas syringae pv. tabaci; details: Pseudomonas syringae pv. tabaci; for Minimum inhibitory concentration, Average: average of triplicates
# Procedure, shortened: (§1)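 MICs determined per CLSI M7-A10 (bacteria) and M27-A3 (yeasts) protocols, peptides tested at 0.5 to 256 μM. MIC taken as the lowest concentration with no cells seen by optical microscopy; three biological repeats with 2 technical replicates each.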
# [12] = system: Bacillus subtilis; details: Bacillus subtilis; for Minimum inhibitory concentration, Average: average of triplicates
# Procedure, shortened: as §1
# [13] = system: Pseudomonas aeruginosa; details: Pseudomonas aeruginosa; for Minimum inhibitory concentration, Average: average of triplicates
# Procedure, shortened: as §1
# [14] = system: Cryptococcus neoformans; details: Cryptococcus neoformans; for Minimum inhibitory concentration, Average: average of triplicates
# Procedure, shortened: as §1
# [15] = system: Bacillus cereus
# Procedure, shortened: as §1
# [16] = system: Xanthomonas campestris; details: for Minimum inhibitory concentration, Average: average of triplicates
# Procedure, shortened: as §1
# [17] = system: Escherichia coli; details: Escherichia coli; for Minimum inhibitory concentration, Average: average of triplicates
# Procedure, shortened: as §1
# [18] = system: Staphylococcus aureus; details: Staphylococcus aureus; for Minimum inhibitory concentration, Average: average of triplicates
# Procedure, shortened: as §1
# [19] = system: Candida albicans; details: Candida albicans; for Minimum inhibitory concentration, Average: average of triplicates
# Procedure, shortened: as §1
# [20] = system: Erwinia carotovora; details: Erwinia carotovora; for Minimum inhibitory concentration, Average: average of triplicates
# Procedure, shortened: as §1
# [21] = CLSI M27-A3, 0.5 to 256 μM tested, triplicate 1, also published in ref 7
substance,measurement,setting,value
Syphaxin,"H sharp component, 2:1 DMPC:DMPG LUVs",[1],824 kJ/mol
same,"H broad component, 2:1 DMPC:DMPG LUVs",[2],13600 kJ/mol
same,"Tm broad component, DMPC LUVs",[3],25.4 °C
same,"Tm sharp component, DMPC LUVs",[4],21.9 °C
same,"Tm sharp component, 2:1 DMPC:DMPG LUVs",[5],22.8 °C
same,"Hv sharp component, DMPC LUVs",[6],383000
same,"Tm broad component, 2:1 DMPC:DMPG LUVs",[7],25.4 °C
same,"H broad component, DMPC LUVs",[8],9460 kJ/mol
same,"Hv broad component, 2:1 DMPC:DMPG LUVs",[9],101000
same,"Hv broad component, DMPC LUVs",[10],120000
Penetratin,"H sharp component, 2:1 DMPC:DMPG LUVs",[1],14100 kJ/mol
same,"H broad component, 2:1 DMPC:DMPG LUVs",[2],10700 kJ/mol
same,"Tm broad component, DMPC LUVs",[3],23.5 °C
same,"Tm sharp component, DMPC LUVs",[4],24.2 °C
same,"Tm sharp component, 2:1 DMPC:DMPG LUVs",[5],24.5 °C
same,"Hv sharp component, DMPC LUVs",[6],1.01e+06
same,"Tm broad component, 2:1 DMPC:DMPG LUVs",[7],26.6 °C
same,"H broad component, DMPC LUVs",[8],12100 kJ/mol
same,"Hv broad component, 2:1 DMPC:DMPG LUVs",[9],116000
same,"Hv broad component, DMPC LUVs",[10],295000
GSLHGFMYKYLKNMVLTLF [At01],Minimum inhibitory concentration,"[11]; CLSI M7-A10, triplicate 1",16 µM
same,"Minimum inhibitory concentration, Average",[11],16.0 µM
same,Minimum inhibitory concentration,[11]; triplicate 2,16 µM
same,Minimum inhibitory concentration,[11]; triplicate 3,16 µM
same,Minimum inhibitory concentration,"[12]; CLSI M7-A10, triplicate 1",16 µM
same,"Minimum inhibitory concentration, Average",[12],16.0 µM
same,Minimum inhibitory concentration,[12]; triplicate 2,16 µM
same,Minimum inhibitory concentration,[12]; triplicate 3,16 µM
same,Minimum inhibitory concentration,"[13]; CLSI M7-A10, triplicate 1",32 µM
same,"Minimum inhibitory concentration, Average",[13],32.0 µM
same,Minimum inhibitory concentration,[13]; triplicate 2,32 µM
same,Minimum inhibitory concentration,[13]; triplicate 3,32 µM
same,Minimum inhibitory concentration,"[14]; CLSI M27-A3, triplicate 1",16 µM
same,"Minimum inhibitory concentration, Average",[14],16.0 µM
same,Minimum inhibitory concentration,[14]; triplicate 2,16 µM
same,Minimum inhibitory concentration,[14]; triplicate 3,16 µM
same,Minimum inhibitory concentration,[15],128 µM
same,"Minimum inhibitory concentration, Average",[15],128.0 µM
same,Minimum inhibitory concentration,"[16]; CLSI M7-A10, triplicate 1",128 µM
same,"Minimum inhibitory concentration, Average",[16],128.0 µM
same,Minimum inhibitory concentration,[16]; triplicate 2,128 µM
same,Minimum inhibitory concentration,[16]; triplicate 3,128 µM
same,Minimum inhibitory concentration,"[17]; CLSI M7-A10, triplicate 1",64 µM
same,"Minimum inhibitory concentration, Average",[17],64.0 µM
same,Minimum inhibitory concentration,[17]; triplicate 2,64 µM
same,Minimum inhibitory concentration,[17]; triplicate 3,64 µM
same,Minimum inhibitory concentration,"[18]; CLSI M7-A10, triplicate 1",16 µM
same,"Minimum inhibitory concentration, Average",[18],16.0 µM
same,Minimum inhibitory concentration,[18]; triplicate 2,16 µM
same,Minimum inhibitory concentration,[18]; triplicate 3,16 µM
same,Minimum inhibitory concentration,[19]; [21],16 µM
same,"Minimum inhibitory concentration, Average",[19],16.0 µM
same,Minimum inhibitory concentration,[19]; triplicate 2,16 µM
same,Minimum inhibitory concentration,[19]; triplicate 3,16 µM
same,Minimum inhibitory concentration,"[20]; CLSI M7-A10, triplicate 1",256 µM
same,"Minimum inhibitory concentration, Average",[20],256.0 µM
same,Minimum inhibitory concentration,[20]; triplicate 2,256 µM
same,Minimum inhibitory concentration,[20]; triplicate 3,256 µM
LHRLVKLVAALLRGYASKVDTH [Tc08],Minimum inhibitory concentration,"[11]; CLSI M7-A10, triplicate 1",4 µM
same,"Minimum inhibitory concentration, Average",[11],4.0 µM
same,Minimum inhibitory concentration,[11]; triplicate 2,4 µM
same,Minimum inhibitory concentration,[11]; triplicate 3,4 µM
same,Minimum inhibitory concentration,"[12]; CLSI M7-A10, triplicate 1",2 µM
same,"Minimum inhibitory concentration, Average",[12],2.0 µM
same,Minimum inhibitory concentration,[12]; triplicate 2,2 µM
same,Minimum inhibitory concentration,[12]; triplicate 3,2 µM
same,Minimum inhibitory concentration,"[13]; CLSI M7-A10, triplicate 1",4 µM
same,"Minimum inhibitory concentration, Average",[13],4.0 µM
same,Minimum inhibitory concentration,[13]; triplicate 2,4 µM
same,Minimum inhibitory concentration,[13]; triplicate 3,4 µM
same,Minimum inhibitory concentration,"[14]; CLSI M27-A3, triplicate 1",8 µM
same,"Minimum inhibitory concentration, Average",[14],8.0 µM
same,Minimum inhibitory concentration,[14]; triplicate 2,8 µM
same,Minimum inhibitory concentration,[14]; triplicate 3,8 µM
same,Minimum inhibitory concentration,"[15]; Bacillus cereus, CLSI M7-A10, triplicate 1",4 µM
same,"Minimum inhibitory concentration, Average","[15]; Bacillus cereus, average of triplicates",6.7 µM
same,Minimum inhibitory concentration,"[15]; Bacillus cereus, triplicate 2",8 µM
same,Minimum inhibitory concentration,"[15]; Bacillus cereus, triplicate 3",8 µM
same,Minimum inhibitory concentration,"[16]; CLSI M7-A10, triplicate 1",4 µM
same,"Minimum inhibitory concentration, Average",[16],4.0 µM
same,Minimum inhibitory concentration,[16]; triplicate 2,4 µM
same,Minimum inhibitory concentration,[16]; triplicate 3,4 µM
same,Minimum inhibitory concentration,"[17]; CLSI M7-A10, triplicate 1",2 µM
same,"Minimum inhibitory concentration, Average",[17],2.0 µM
same,Minimum inhibitory concentration,[17]; triplicate 2,2 µM
same,Minimum inhibitory concentration,[17]; triplicate 3,2 µM
same,Minimum inhibitory concentration,"[18]; CLSI M7-A10, triplicate 1",2 µM
same,"Minimum inhibitory concentration, Average",[18],2.0 µM
same,Minimum inhibitory concentration,[18]; triplicate 2,2 µM
same,Minimum inhibitory concentration,[18]; triplicate 3,2 µM
same,Minimum inhibitory concentration,[19]; [21],4 µM
same,"Minimum inhibitory concentration, Average",[19],4.0 µM
same,Minimum inhibitory concentration,[19]; triplicate 2,4 µM
same,Minimum inhibitory concentration,[19]; triplicate 3,4 µM
same,Minimum inhibitory concentration,"[20]; CLSI M7-A10, triplicate 1",2 µM
same,"Minimum inhibitory concentration, Average",[20],3.3 µM
same,Minimum inhibitory concentration,[20]; triplicate 2,4 µM
same,Minimum inhibitory concentration,[20]; triplicate 3,4 µM
